Target: Thrombin (Homo sapiens, UniProt P00734)
Assay: Thrombin inhibition in vitro (Kiapp)
Format: biochemical
Procedure: The inhibitory potency of Compound 1 on thrombin was tested in vitro.

**Q.** With CNC(=O)[C@@H]1CN(C(=O)[C@H](Cc2ccccc2CNC(=N)N)NC(=O)N(C)[C@H]2CCOc3ccccc32)C[C@H]1c1ccc(OC)cc1 [Compound 1] as the compound, how does the Ki (in vitro, FIG. 1, read-out: inhibition constant (thrombin)) read?
**A.** 1 nM

**Q.** What about the “potency relative to argatroban (thrombin inhibition)” value (ratio of inhibition constants vs argatroban) of the same compound?
**A.** about 10 fold
